Legend:
[1] = Potentiometric titrations: stability constants and pM of Cu^2+ complexes; format: physicochemical
Protocol: Equipment and work conditions. The potentiometric setup has been described in Roger, M. et al. Inorg. […] Ligand solutions were prepared at about 2.0×10^−3 M, and the Cu^2+ and Zn^2+ solutions at ca. 0.05 M from analytical grade nitrate salts and standardized by complexometric titrations with H4edta (ethylenediaminetetraacetic acid). Sample solutions for titration contained approximately 0.04 mmol of ligand in a volume of 30 mL where the ionic strength was kept at 0.10 M using KNO3 as background electrolyte. Metal cations were added at 0.9 equiv. of the ligand amount in complexation titrations. Batch titrations were prepared in a similar way but with each titration point corresponding to 1/10 of the amount of a conventional titration sample.
(§1) Measurements. All measurements were carried out at 25.0±0.1° C. under inert atmosphere. The electromotive force of the sample solutions was measured after calibration of the electrodes by titration of a standard HNO3 solution at 2.0×10^−3 M in the work conditions. The [H^+] of the solutions was determined by measurement of the electromotive force of the cell, E=E^o′+Q log [H^+]+Ej. The term pH is defined as −log [H^+]. E^o′ and Q were determined from the acid region of the calibration curves. Deviations from the Nernst law at very low pH (pH<2.5) were corrected with the VLpH software (Calibration software from the maker of Hyperquad available for free at http://www.hyperquad.co.uk/), which performs a [H^+] correction based on a very low pH calibration procedure.
Calculations. The potentiometric data were refined with the Hyperquad software, and speciation diagrams were plotted using the HySS software. The overall equilibrium constants βi^H and βMmHhL1 are defined by βMmHhL1=[MmHhLl]/[M]^m[H]^h[L]^l (βi^H=[HhLl]/[H]^h[L]^l and βML-1L=βML(OH)×Kw). Differences in log units between the values of protonated (or hydrolysed) and non-protonated constants provide the stepwise (log K) reaction constants (being KMmHhL1=[MmHhLl]/[MmHh-1Ll][H]). The errors quoted are the standard deviations calculated by the fitting program from all the experimental data for each system.
The stability constants of the complexes formed by Hcb-te1pa with Cu^2+ and Zn^2+ were determined by potentiometric titrations in aqueous solution at 25.0° C. in 0.10 M KNO3 ionic strength (Table 2).
During titrations, each experimental point included a supplementary equilibration time in order to yield fully stabilized measurements. […] For this reason, batch titrations were prepared in the range of pH=4-6 and were left to equilibrate until full stabilization, while conventional titrations were used for the remaining pH regions.
For a correct comparison of the thermodynamic stability of the complexes of Hcb-te1pa with the corresponding values of other ligands from the literature, the pM values that take into account the variable basicity properties of different ligands were also calculated (Table 3). […] The thermodynamic stability is not the only important criterion to determine the efficiency of metal complexation because, depending on the application, other factors such as kinetic inertness or in vivo stability can be more important.

[2] = Potentiometric titrations: protonation constants of the ligands; format: physicochemical; conditions: 25.0° C., 0.10M KNO3
Protocol: Equipment and work conditions. The potentiometric setup has been described in Roger, M. et al. Inorg. Chem. 2013, 52, 5246-5259. The titrant was a KOH solution prepared at ca. 0.1 M from a commercial ampoule of analytical grade, and its accurate concentration was obtained by application of the Gran's method upon titration of a standard HNO3 solution (Rossotti, F. J. and Rossotti, H. J. J. Chem. Educ. 1965, 42, 375-378). Ligand solutions were prepared at about 2.0×10^−3 M, and the Cu^2+ and Zn^2+ solutions at ca. 0.05 M from analytical grade nitrate salts and standardized by complexometric titrations with H4edta (ethylenediaminetetraacetic acid). Sample solutions for titration contained approximately 0.04 mmol of ligand in a volume of 30 mL where the ionic strength was kept at 0.10 M using KNO3 as background electrolyte. Metal cations were added at 0.9 equiv. of the ligand amount in complexation titrations. Batch titrations were prepared in a similar way but with each titration point corresponding to 1/10 of the amount of a conventional titration sample. Batch titration points were incubated in tightly closed vials at 25° C. until potential measurements attained complete stability, which happened within a week.
as §1, with “procedure. The liquid-junction potential, Ej, was otherwise found to be negligible for pH >2.5 under the experimental conditions used. […] Each titration consisted of 80-100 equilibrium points in the range of pH 2.5-11.5 (or 1.5-11.5 for Cu^2+ complexations), and at least two replicate titrations were performed for each particular system.” for “procedure.”
Calculations. […] The errors quoted are the standard deviations calculated by the fitting program from all the experimental data for each system.
The protonation constants of Hcb-te1pa were studied in aqueous solution at 25.0° C. The compound has five basic centers consisting of the four amines and the carboxylate function, from which only two could be accurately determined by potentiometric titrations (Table 1). […]

- log KMLHh, Cu^2+ + L ⇌ CuL ([1]; 25.0° C., I = 0.10M KNO3): 26.00 log units
- log βMLHh, Cu^2+ + L ⇌ CuL ([1]; 25.0° C., I = 0.10M KNO3): 26.00(5) log units
- b) thermodynamic stability: log K[CuL] ([1]; overview table): 26.00
- b) thermodynamic stability: pCu ([1]; overview table, calculated pM): 15.67
- Calculated pM, Cu^2+ ([1]; pH = 7.4, 100% excess of ligand, [M^2+]tot = 1 × 10^−5 M): 15.67
- log βi^H, L + 2 H^+ ⇌ H2L [2]: 25.13(5) log units
- log βi^H, L + 3 H^+ ⇌ H3L [2]: 27.56(5) log units
- log βi^H, L + 4 H^+ ⇌ H4L [2]: <29.56 log units
- log βi^H, L + H^+ ⇌ HL [2]: >15 log units
SMILES: O=C(O)c1cccc(CN2CCCN3CCNCCCN(CC3)CC2)n1 [Hcb-te1pa, 6-(1,4,8,11-tetraazabicyclo[6.6.2]hexadecan-4-ylmethyl)picolinic acid]

— patent US10434199B2, “Picolinate cross-bridged cyclams, chelates with metallic cations and use thereof” (UNIVERSITÉ DE BRETAGNE OCCIDENTALE, priority 2013, dated 2019)
